Test: Log of liquid dish neat product liquid-air partition coefficient
Assay type: physicochemical
Details: not given

Q: With `COc1cc(C)ccc1O` [Material 492] as the molecule, how does the “Comment Code: Log of liquid dish neat product liquid-air partition coefficient” value (“Comment Code: Log” below) read?
A: K (Log of liquid dish neat product liquid-air partition coefficient greater than or equal to 7)

Q: For `CC1OC(C)C2Cc3ccccc3C2O1` (centres unmarked) [Material 141], which “Comment Code: Log” value is on record?
A: K (Log of liquid dish neat product liquid-air partition coefficient greater than or equal to 7)

Q: For `CC12CCCC(O)(C1)C1CC(C)(C)C1CC2` (centres unmarked) [Material 574], which “Comment Code: Log” value is on record?
A: K (Log of liquid dish neat product liquid-air partition coefficient greater than or equal to 7)

Q: With `CCOCCOCCO` [Material 579] as the molecule, how does the “Comment Code: Log” value read?
A: K (Log of liquid dish neat product liquid-air partition coefficient greater than or equal to 7)

Q: Which “Comment Code: Log” value does the source give for `CC(=O)OC(C)c1ccccc1` (centres unmarked) [Material 1041] here?
A: K (Log of liquid dish neat product liquid-air partition coefficient greater than or equal to 7)

Q: Which “Comment Code: Log” value does the source give for `CC(C)C(=O)OCCc1ccccc1` [Material 958] here?
A: K (Log of liquid dish neat product liquid-air partition coefficient greater than or equal to 7)

Q: With `C/C=C\c1ccc(O)c(OC)c1` [Material 528] as the molecule, how does the “Comment Code: Log” value read?
A: K (Log of liquid dish neat product liquid-air partition coefficient greater than or equal to 7)

Q: Which “Comment Code: Log” value does the source give for `CCc1ccc(OC)c(O)c1` [Material 797] here?
A: K (Log of liquid dish neat product liquid-air partition coefficient greater than or equal to 7)

Q: With `CC(C)C1CCC(CO)CC1` (centres unmarked) [Material 133] as the molecule, how does the “Comment Code: Log” value read?
A: K (Log of liquid dish neat product liquid-air partition coefficient greater than or equal to 7)

Q: For `CC1=CC(C)C2C(CCC(C)(C)C2O)C1` (centres unmarked) [Material 39], which “Comment Code: Log” value is on record?
A: K (Log of liquid dish neat product liquid-air partition coefficient greater than or equal to 7)

Q: With `CC(O)CCC1C(C)CCCC1(C)C` (centres unmarked) [Material 1052] as the molecule, how does the “Comment Code: Log” value read?
A: K (Log of liquid dish neat product liquid-air partition coefficient greater than or equal to 7)

Q: Which “Comment Code: Log” value does the source give for `CCC(C)c1nccnc1OC` (centres unmarked) [Material 845] here?
A: K (Log of liquid dish neat product liquid-air partition coefficient greater than or equal to 7)

Q: Which “Comment Code: Log” value does the source give for `C[C@H]1[C@@H]2C[C@H](C[C@@]13C=CC(=O)CC3)C2(C)C` [Material 1143] here?
A: K (Log of liquid dish neat product liquid-air partition coefficient greater than or equal to 7)

Same assay, conditions: Comment Code letters K and/or L

Q: For `C[C@H]1[C@@H]2C[C@H](C[C@@]13C=CC(=O)CC3)C2(C)C` [Material 1143], which “Log of liquid dish neat product liquid-air partition coefficient (Comment Code K/L)” value (shortened to “Log … (Comment Code K/L)”) is on record?
A: K (Log of liquid dish neat product liquid-air partition coefficient greater than or equal to 7)

Same assay, conditions: code letter within the Comment Code cell

Q: For `CCCC(=O)OC(C)(C)Cc1ccccc1` [Material 432], which “Log … (Comment Code K/L)” value is on record?
A: K (Log of liquid dish neat product liquid-air partition coefficient greater than or equal to 7)

Q: With `CC1OC(C)C2Cc3ccccc3C2O1` (centres unmarked) [Material 141] as the molecule, how does the “Log … (Comment Code K/L)” value read?
A: K (Log of liquid dish neat product liquid-air partition coefficient greater than or equal to 7)

Q: Which “Log … (Comment Code K/L)” value does the source give for `C=CC(O)(CC)CCC=C(C)C` (centres unmarked) [Material 390] here?
A: K (Log of liquid dish neat product liquid-air partition coefficient greater than or equal to 7)

Q: Which “Log … (Comment Code K/L)” value does the source give for `C=C(C)C1CCC(C)C(OC(C)=O)C1` (centres unmarked) [Material 444] here?
A: K (Log of liquid dish neat product liquid-air partition coefficient greater than or equal to 7)

Q: Which “Log … (Comment Code K/L)” value does the source give for `C=CCc1ccc(OC)cc1` [Material 119] here?
A: K (Log of liquid dish neat product liquid-air partition coefficient greater than or equal to 7)

Q: For `C=CCc1ccc(O)c(OC)c1` [Material 375], which “Log … (Comment Code K/L)” value is on record?
A: K (Log of liquid dish neat product liquid-air partition coefficient greater than or equal to 7)

Q: Which “Log … (Comment Code K/L)” value does the source give for `C=CC(C)CCC=C(C)CCC=O` (racemic) [Material 358] here?
A: K (Log of liquid dish neat product liquid-air partition coefficient greater than or equal to 7)

Q: Which “Log … (Comment Code K/L)” value does the source give for `CCCCCCCCCCCC(=O)OCC` [Material 391] here?
A: K (Log of liquid dish neat product liquid-air partition coefficient greater than or equal to 7)

Q: With `CC(=O)c1oc2ccccc2c1C` [Material 61] as the molecule, how does the “Log … (Comment Code K/L)” value read?
A: K (Log of liquid dish neat product liquid-air partition coefficient greater than or equal to 7)

Q: Which “Log … (Comment Code K/L)” value does the source give for `CC(=O)OC1(C)CCC(=C(C)C)CC1` (centres unmarked) [Material 317] here?
A: K (Log of liquid dish neat product liquid-air partition coefficient greater than or equal to 7)

Q: For `C=C1CCCC(C)(C)C1C=CC(C)=O` (centres unmarked) [Material 324], which “Log … (Comment Code K/L)” value is on record?
A: K (Log of liquid dish neat product liquid-air partition coefficient greater than or equal to 7)

Q: Which “Log … (Comment Code K/L)” value does the source give for `CC(=O)OCC1CC=C(CCC=C(C)C)CC1` (centres unmarked) [Material 74] here?
A: K (Log of liquid dish neat product liquid-air partition coefficient greater than or equal to 7)

Q: For `CC1=CC(C)C2C(CCC(C)(C)C2O)C1` (centres unmarked) [Material 39], which “Log … (Comment Code K/L)” value is on record?
A: K (Log of liquid dish neat product liquid-air partition coefficient greater than or equal to 7)

Q: With `C=CCCCCCCCCC(=O)OCCC(C)C` [Material 234] as the molecule, how does the “Log … (Comment Code K/L)” value read?
A: K (Log of liquid dish neat product liquid-air partition coefficient greater than or equal to 7)

Same assay, conditions: code letters K/L of the Comment Code

Q: With `C=CC(C)=CCC=C(C)CCC=C(C)C=O` [Material 691] as the molecule, how does the “Log of liquid dish neat product liquid-air partition coefficient (Comment Code)” value (“Log … (Comment Code)” below) read?
A: K (Log of liquid dish neat product liquid-air partition coefficient greater than or equal to 7)

Q: With `CC12CCCC(O)(C1)C1CC(C)(C)C1CC2` (centres unmarked) [Material 574] as the molecule, how does the “Log … (Comment Code)” value read?
A: K (Log of liquid dish neat product liquid-air partition coefficient greater than or equal to 7)

Q: With `CCC(C)(O)CCc1ccccc1` (centres unmarked) [Material 731] as the molecule, how does the “Log … (Comment Code)” value read?
A: K (Log of liquid dish neat product liquid-air partition coefficient greater than or equal to 7)

Q: For `c1ccc(CCOC2CCCCC2)cc1` [Material 953], which “Log … (Comment Code)” value is on record?
A: K (Log of liquid dish neat product liquid-air partition coefficient greater than or equal to 7)

Q: For `CC(=O)C1CC/C(C)=C\CC/C(C)=C\C/C=C/1C` (centres unmarked) [Material 1095], which “Log … (Comment Code)” value is on record?
A: K (Log of liquid dish neat product liquid-air partition coefficient greater than or equal to 7)

Q: With `C=CCCC(=O)C1=CCCC(C)(C)C1` [Material 697] as the molecule, how does the “Log … (Comment Code)” value read?
A: K (Log of liquid dish neat product liquid-air partition coefficient greater than or equal to 7)

Q: For `CC1=CCC(CCC(C)C(C)O)C1(C)C` (centres unmarked) [Material 1023], which “Log … (Comment Code)” value is on record?
A: K (Log of liquid dish neat product liquid-air partition coefficient greater than or equal to 7)

— patent publication US20170333591A9, “ABSORBENT ARTICLE COMPRISING MALODOR REDUCTION COMPOSITIONS” (The Procter & Gamble Company, priority 2014, published 2017)
